Paper PMC13083723 (Patterns, 2026)
pEC50: −log10 of the molar value. Where a name gives a salt, the structure may show the parent alone. Read-outs that look alike come from different tables or passages of the source.

Columns and labels:
SARS-CoV-2 [1] = conditions: Caco-2, 20 µM; cited from earlier work
Vero-E6 cells = assay: cells; assay type: cell-based
SARS-CoV-2 [2] = conditions: cited from earlier work; for Vero-E6 CPE inhibition %: 10 µM
[3] = Chlorocebus sabaeus, Vero C1008, read-out: PLD EC50 µM
[4] = Chlorocebus sabaeus, Vero C1008, 24 h; read-out: PLD Effect in % 5 µM
[5] = Chlorocebus sabaeus, Vero C1008, 24 h; read-out: PLD Effect in % 10 µM
[6] = Chlorocebus sabaeus, Vero C1008, 24 h; read-out: PLD Effect in % 20 µM
[7] = Chlorocebus sabaeus, Vero C1008; read-out: PLD EC50

## CCCCN1[C@@H]2CC[C@H]1C[C@@H](OC(c1ccc(F)cc1)c1ccc(F)cc1)C2 [JHW-007, reference compound]
SARS-CoV-2 [1]
  CaCo2 CPE inhibition %: 93.14%
Vero-E6 cells; 5 µM
  PLD Effect in % 5 µM: 115.34%
Vero-E6 cells; 10 µM
  PLD Effect in % 10 µM: 112.39%
Vero-E6 cells; 20 µM
  PLD Effect in % 20 µM: 86.69%
Vero-E6 cells; read-out: PLD EC50
  pEC50: 6.15
SARS-CoV-2 [2]
  Vero-E6 CPE inhibition %: -0.32%

## COC(=O)C1=C(C)NC(C)=C(C(=O)OCCCN2CCC(c3ccccc3)(c3ccccc3)CC2)[C@@H]1c1cccc([N+](=O)[O-])c1 [Dexniguldipine, reference compound]
SARS-CoV-2 [1]
  CaCo2 CPE inhibition %: 97.57%
Vero-E6 cells; Chlorocebus sabaeus, Vero C1008, 24 h, read-out: PLD Effect in % 5 µM
  activation at 5 µM: 83.1%
Vero-E6 cells; Chlorocebus sabaeus, Vero C1008, 24 h, read-out: PLD Effect in % 10 µM
  activation at 10 µM: 115%
Vero-E6 cells; Chlorocebus sabaeus, Vero C1008, 24 h, read-out: PLD Effect in % 20 µM
  activation at 20 µM: 127%
Vero-E6 cells; [3]
  EC50: 2.48 µM
SARS-CoV-2 [2]
  Vero-E6 CPE inhibition %: -0.15%

## CCOc1cc(C(C)(C)C)ccc1C1=N[C@@](C)(c2ccc(Cl)cc2)[C@@](C)(c2ccc(Cl)cc2)N1C(=O)N1CCN(CCCS(C)(=O)=O)CC1 [RG7112 (RO50455337), reference compound]
SARS-CoV-2 [1]
  CaCo2 CPE inhibition %: 88.52%
Vero-E6 cells; [4]
  activation at 5 µM: 109%
Vero-E6 cells; [5]
  activation at 10 µM: 141%
Vero-E6 cells; [6]
  activation at 20 µM: 88.5%
Vero-E6 cells; [7]
  pEC50: 5.59
SARS-CoV-2 [2]
  Vero-E6 CPE inhibition %: 6.32

## O=C1Nc2ccc(Cl)c3c2C1(CCCCN1CC=C(c2ccc(Cl)cc2)CC1)CCC3 (centres unmarked) [DR-4485, reference compound]
SARS-CoV-2 [1]
  CaCo2 CPE inhibition %: 82.83%
Vero-E6 cells; 5 µM
  PLD Effect in % 5 µM: 94.34%
Vero-E6 cells; 10 µM
  PLD Effect in % 10 µM: 201.85%
Vero-E6 cells; 20 µM
  PLD Effect in % 20 µM: -16.80%
SARS-CoV-2 [2]
  Vero-E6 CPE inhibition %: -0.26%

## CN(C)CC/C=C1/c2ccccc2Sc2ccc(Cl)cc21 [chlorprothixene hydrochloride, reference compound]
SARS-CoV-2 [1]
  CaCo2 CPE inhibition %: 55.65%
Vero-E6 cells; [4]
  activation at 5 µM: 124%
Vero-E6 cells; [5]
  activation at 10 µM: 113%
Vero-E6 cells; [6]
  activation at 20 µM: 192%
Vero-E6 cells; [3]
  EC50: 2.36 µM
SARS-CoV-2 [2]
  Vero-E6 CPE inhibition %: 0.27%

## CC(C)[C@H]1c2ccc(F)cc2CC[C@@]1(CCN(C)CCCc1nc2ccccc2[nH]1)OC(=O)C1CC1 [NNC-55-0396, reference compound]
SARS-CoV-2 [1]
  CaCo2 CPE inhibition %: 58.09%
Vero-E6 cells; 5 µM
  PLD Effect in % 5 µM: 87.06%
Vero-E6 cells; 10 µM
  PLD Effect in % 10 µM: 154.81%
Vero-E6 cells; 20 µM
  PLD Effect in % 20 µM: -43.08%
Vero-E6 cells; read-out: PLD EC50
  pEC50: 5.20
SARS-CoV-2 [2]
  Vero-E6 CPE inhibition %: 0%
SARS-CoV-2 [2]; read-out: Vero-E6 EC50
  pEC50: 5.09

## COc1ccccc1C1(O)CCN(CCCn2c3ccccc3c3ccccc32)CC1 [NNC-05-2090, reference compound]
SARS-CoV-2 [1]
  CaCo2 CPE inhibition %: 71.83%
Vero-E6 cells; 5 µM
  PLD Effect in % 5 µM: 128.41%
Vero-E6 cells; 10 µM
  PLD Effect in % 10 µM: 178.14%
Vero-E6 cells; 20 µM
  PLD Effect in % 20 µM: 118.98%
Vero-E6 cells; read-out: PLD EC50
  pEC50: 5.31
SARS-CoV-2 [2]
  Vero-E6 CPE inhibition %: -0.32%

## CCCCN(CCCC)CCC(O)c1cc2c(Cl)cc(Cl)cc2c2cc(C(F)(F)F)ccc12 (centres unmarked) [halofantrine HCl, reference compound]
SARS-CoV-2 [1]
  CaCo2 CPE inhibition %: 91.38%
Vero-E6 cells; [4]
  activation at 5 µM: 79.8%
Vero-E6 cells; [5]
  activation at 10 µM: 87%
Vero-E6 cells; [6]
  activation at 20 µM: 114%
Vero-E6 cells; [3]
  EC50: 1.66 µM
SARS-CoV-2 [2]
  Vero-E6 CPE inhibition %: 0.17%

## Cc1ccc(C(=O)N(CCCN)[C@@H](c2nc3cc(Cl)ccc3c(=O)n2Cc2ccccc2)C(C)C)cc1 [ispinesib (SB-715992), ispinesib, reference compound]
SARS-CoV-2 [1]
  CaCo2 CPE inhibition %: 91.86%
Vero-E6 cells; [4]
  activation at 5 µM: 207%
Vero-E6 cells; [5]
  activation at 10 µM: 205%
Vero-E6 cells; [6]
  activation at 20 µM: -43.2%
Vero-E6 cells; [7]
  pEC50: 5.74
SARS-CoV-2 [2]
  Vero-E6 CPE inhibition %: -0.29

## CCN(CC)CC1CCN(c2ncc3ncnc(Nc4ccc(F)c(Cl)c4)c3n2)CC1 [BIBU-1361, reference compound]
SARS-CoV-2 [1]
  CaCo2 CPE inhibition %: 78.51%
Vero-E6 cells; 5 µM
  PLD Effect in % 5 µM: 160.51%
Vero-E6 cells; 10 µM
  PLD Effect in % 10 µM: 180.15%
Vero-E6 cells; 20 µM
  PLD Effect in % 20 µM: -42.53%
Vero-E6 cells; read-out: PLD EC50
  pEC50: 6.20
SARS-CoV-2 [2]
  Vero-E6 CPE inhibition %: -0.24%

## CN(C)CCNc1nc2cc(O)ccc2c2c1C(=O)c1ccccc1-2 [TAS-103, reference compound]
SARS-CoV-2 [1]
  CaCo2 CPE inhibition %: 92.56%
Vero-E6 cells; 5 µM
  PLD Effect in % 5 µM: 135.39%
Vero-E6 cells; 10 µM
  PLD Effect in % 10 µM: 172.31%
Vero-E6 cells; 20 µM
  PLD Effect in % 20 µM: 121.21%
Vero-E6 cells; read-out: PLD EC50
  pEC50: 5.64
SARS-CoV-2 [2]
  Vero-E6 CPE inhibition %: -0.08%

## c1ccc(CNc2nc(NCc3ccccc3)c3ccccc3n2)cc1 [DBeQ, reference compound]
SARS-CoV-2 [1]
  CaCo2 CPE inhibition %: 100.89%
Vero-E6 cells; 5 µM
  PLD Effect in % 5 µM: 73.45%
Vero-E6 cells; 10 µM
  PLD Effect in % 10 µM: 88.88%
Vero-E6 cells; 20 µM
  PLD Effect in % 20 µM: -36.11%
Vero-E6 cells; read-out: PLD EC50
  pEC50: 5.92
SARS-CoV-2 [2]
  Vero-E6 CPE inhibition %: -0.3

## CN(C)C(=O)C(CCN1CCC(O)(c2ccc(Cl)cc2)CC1)(c1ccccc1)c1ccccc1 [loperamide hydrochloride, reference compound]
SARS-CoV-2 [1]
  CaCo2 CPE inhibition %: 58.93%
Vero-E6 cells; [4]
  activation at 5 µM: 55%
Vero-E6 cells; [5]
  activation at 10 µM: 75.4%
Vero-E6 cells; [6]
  activation at 20 µM: 86.1%
SARS-CoV-2 [2]
  Vero-E6 CPE inhibition %: 5.03%
